# Measured values reported in US20080269060A1, “Herbicidal Formulation” (priority 2004, published 2008).
# Read-outs that look alike come from different tables or passages of the source.
# Tests used:
# [1] = Amount of mesotrione in solution by UV-visible spectrophotometry in aqueous electrolyte; format: physicochemical; conditions: pH approximately 5
# Method: Eight aqueous millbase formulations were made comprising mesotrione millbase (12 g/L or 10,000 approximately) and varying amounts of glyphosate-potassium, ammonium sulphate, and sodium chloride. All samples were held at a pH of approximately 5 by using phosphoric acid for adjustment. The amount of mesotrione in solution was determined using UV-visible spectrophotometry, since the aqueous solubility of mesotrione is related to the expected rate of decomposition of this active ingredient in such systems.
# [2] = Storage stability of 1% mesotrione / isoxaflutole salt mixtures, 8 weeks at +45° C. vs −18° C.; format: physicochemical; set-up: Start: unit not given here; conditions: for 45° C. / % decomposition: 8 weeks at 45° C.; for Start: held at −18° C. 8 weeks
# Method: Millbase preparations of mesotrione and isoxaflutole were made using the following method:
# The sample is placed in a round bottomed flask (˜140 mls) and mixed at 150 rpm for 15 minutes until homogeneous. An equal volume of glass beads is added to the flask (0.8-1.0 mm diameter) and the sample is milled at 650 rpm of 60 minutes. The particle size was checked. Further milling of the sample continued (60 minutes for mesotrione and 150 minutes for isoxaflutole). The particle size was checked again and all particles met the specification of 5 microns (D(4,3) volume weighted mean diameter).
# The samples were extracted under vacuum through a sieve to disengage the beads from the millbases. The two millbases shown below were checked for AI content and used in the preparation of the salt mixtures. The final mixtures (see below) were then placed on storage at −18° C. (controlled initial sample) and +45° C. for 8 weeks. Analysis was then carried out using validated methods. The salts used were: glyphosate potassium aqueous solution; diquat dibromide aqueous solution; paraquat dichloride aqueous solution.
# Analytical Results: storage time was 8 weeks; sample denoted as “start” was held at −18° C. for the same period.
# [3] = water, cited from earlier work
# [4] = 1% active and diquat pH ~4, Salt % 7.50 (as diquat anion)
# [5] = 1% active and diquat pH ~4, Salt % 15.00 (as diquat anion)
# [6] = 1% active and diquat pH ~4, Salt % 22.50 (as diquat anion)
# [7] = 1% active and glyphosate pH ~5, Salt % 15.00 (as glyphosate acid equivalent)
# [8] = 1% active and glyphosate pH ~5, Salt % 45.00 (as glyphosate acid equivalent)
# [9] = 1% active and paraquat pH ~4, Salt % 10.00 (as paraquat anion)
# [10] = 1% active and paraquat pH ~4, Salt % 20.00 (as paraquat anion)
# [11] = 1% active and paraquat pH ~4, Salt % 30.00 (as paraquat anion)
# [12] = 1% active, no salt, adjusted pH 2
# [13] = 1% mesotrione not adjusted pH 5 (pH ~4.5), no salt
# [14] = 1% isoxaflutole unadjusted pH 7.0, no salt
smiles,measurement,setting,value
"CS(=O)(=O)c1ccc(C(=O)C2C(=O)CCCC2=O)c([N+](=O)[O-])c1 [Mesotrione, 2-(4-methylsulphonyl-2-nitrobenzoyl)cyclohexane-1,3-dione]",Concentration of mesotrione in solution,[1]; Ammonium sulphate solution 100 g per litre,625 ppm
same,Concentration of mesotrione in solution,[1]; Ammonium sulphate solution 200 g per litre,504 ppm
same,Concentration of mesotrione in solution,[1]; Ammonium sulphate solution 300 g per litre,391 ppm
same,Concentration of mesotrione in solution,[1]; Ammonium sulphate solution 400 g per litre,271 ppm
same,Concentration of mesotrione in solution,[1]; Ammonium sulphate solution 500 g per litre,263 ppm
same,Concentration of mesotrione in solution,[1]; Potassium glyphosate 100 g per litre,1220 ppm
same,Concentration of mesotrione in solution,[1]; Potassium glyphosate 200 g per litre,700 ppm
same,Concentration of mesotrione in solution,[1]; Potassium glyphosate 300 g per litre,480 ppm
same,Concentration of mesotrione in solution,[1]; Potassium glyphosate 360 g per litre,290 ppm
same,Concentration of mesotrione in solution,[1]; Potassium glyphosate 400 g per litre,210 ppm
same,Concentration of mesotrione in solution,[1]; Potassium glyphosate 500 g per litre,180 ppm
same,Concentration of mesotrione in solution,[1]; Potassium glyphosate 600 g per litre,170 ppm
same,Concentration of mesotrione in solution,[1]; Potassium glyphosate 640 g per litre,160 ppm
same,Concentration of mesotrione in solution,[1]; Sodium Chloride 50 g per litre,605 ppm
same,Concentration of mesotrione in solution,[1]; Sodium Chloride 105 g per litre,549 ppm
same,Concentration of mesotrione in solution,[1]; Sodium Chloride 165 g per litre,510 ppm
same,Concentration of mesotrione in solution,[1]; Sodium Chloride 230 g per litre,479 ppm
same,Concentration of mesotrione in solution,[1]; Sodium Chloride 300 g per litre,443 ppm
same,Concentration of mesotrione in solution,[1]; electrolyte: None,4700 ppm
same,45° C.,[2]; [4],0.96
same,% decomposition,[2]; [4],9.43%
same,Start,[2]; [4],1.06
same,45° C.,[2]; [5],0.93
same,% decomposition,[2]; [5],13.08%
same,Start,[2]; [5],1.07
same,45° C.,[2]; [6],0.86
same,% decomposition,[2]; [6],21.10%
same,Start,[2]; [6],1.09
same,45° C.,[2]; [7],0.86
same,% decomposition,[2]; [7],18.1%
same,Start,[2]; [7],1.05
same,45° C.,[2]; [8],0.80
same,% decomposition,[2]; [8],14.9%
same,Start,[2]; [8],0.94
same,45° C.,[2]; [9],0.96
same,% decomposition,[2]; [9],12.73%
same,Start,[2]; [9],1.10
same,45° C.,[2]; [10],0.98
same,% decomposition,[2]; [10],12.50%
same,Start,[2]; [10],1.12
same,45° C.,[2]; [11],0.90
same,% decomposition,[2]; [11],18.18%
same,Start,[2]; [11],1.10
same,45° C.,[2]; [12],0.96
same,% decomposition,[2]; [12],10.28%
same,Start,[2]; [12],1.07
same,45° C.,[2]; [13],0.83
same,% decomposition,[2]; [13],34.65%
same,Start,[2]; [13],1.27
same,solubility,"[3]; pH 4.8, 20° C.",2.2 g/L
same,solubility,"[3]; pH 6.9, 20° C.",15 g/L
same,solubility,"[3]; pH 9, 20° C.",22 g/L
"CS(=O)(=O)c1cc(C(F)(F)F)ccc1C(=O)c1cnoc1C1CC1 [Isoxaflutole, 5-cyclopropyl-4-(2-methylsulfonyl-4-trifluoromethyl)benzoylisoxazole]",45° C.,[2]; [4],0.94
same,% decomposition,[2]; [4],11.30%
same,Start,[2]; [4],1.06
same,45° C.,[2]; [5],0.94
same,% decomposition,[2]; [5],9.50%
same,Start,[2]; [5],1.04
same,45° C.,[2]; [6],0.87
same,% decomposition,[2]; [6],16.50%
same,Start,[2]; [6],1.04
same,45° C.,[2]; [9],0.99
same,% decomposition,[2]; [9],6.00%
same,Start,[2]; [9],1.05
same,45° C.,[2]; [10],0.90
same,% decomposition,[2]; [10],12.00%
same,Start,[2]; [10],1.02
same,45° C.,[2]; [11],0.80
same,% decomposition,[2]; [11],7.00%
same,Start,[2]; [11],0.86
same,45° C.,[2]; [12],1.02
same,% decomposition,[2]; [12],nil
same,Start,[2]; [12],0.98
same,45° C.,[2]; [14],0.85
same,% decomposition,[2]; [14],17.00%
same,Start,[2]; [14],1.06
